From article PMC3401907, “Cellular Uptakes, Biostabilities and Anti-miR-210 Activities of Chiral Arginine-PNAs in Leukaemic K562 Cells” (Chembiochem, 2012)

Tests used:
γ-globin gene expression = γ-globin gene expression by RT-qPCR; type: cell-based, human; conditions: mithramycin-treated (15 nM) K562 cells, PNA 2 μM single administration, 72 h, n=3
Procedure: The strong inhibition of miR-210 by PNA2 and PNA4 might thus result in appreciable reduction of γ-globin gene expression.
Figure 6 A) Effects of pept-1, PNA1, PNA2 and PNA4 molecules (each 2 μM) on γ-globin content in K562 cell cultures for 72 h with MTH (15 nM). Data are reported as arbitrary units relative to cells treated with pept-1 and MTH (average±SD, n=3, *: p<0.05, **: p<0.01). B), C) Effects of treatment (72 h) with pept-1, PNA1, PNA2 and PNA4 molecules on K562 cells induced to erythroid differentiation by MTH (15 nM): B) summary of three independent experiments, C) a representative experiment showing staining of the cells with benzidine.
The nucleotide sequences used for real-time qPCR analysis of γ-globin mRNAs were γ-globin forward primer (5′-TGGCAA GAAGGT GCTGAC TTC-3′), γ-globin reverse primer (5′-TCACTC AGCTGG GCAAAG G-3′) and γ-globin probe (5′-FAM-TGGGAG ATGCCA TAAAGC ACCTGG-TAMRA-3′).[25] The relative expression was calculated by the comparative cycle threshold method with endogenous control human 18S rRNA as reference genes.[25]

[1] = test system: RNA2 (mismatched RNA, G→U); assay: Melting temperature (Tm) of PNA:RNA duplexes, single-mismatch RNA; type: binding; conditions: UV absorbance at 260 nm, PBS buffer pH 7 with urea 5 M, strand concentration 5 μM
Source text: Sequence selectivity is a very important issue in view of the use of PNAs in cellular systems, because partial hybridisation might occur with other unrelated miRNAs or, most importantly, with mRNA targets. We analysed the sequence selectivities of our PNAs with stricter models (DNA2 and RNA2) involving single base mismatches (G→T or G→U) located in the middle of the target sequences. In each case the sequence selectivity was confirmed by significant lowering of the melting temperature. The ranges of ΔTm due to the presence of these single mismatches were 8–21 °C for DNA, with the maximum drop in the case of PNA4 and the minimum observed in that of PNA6. For the latter it should be considered that the mismatch was facing the last chiral monomer, preventing the cooperative effect observed in the case of 2D-modifed highly constrained PNA.[22]
(§1) Measurements of Tm values: The Tm values were determined with a Lambda Bio 20 spectrophotometer and a Peltier PTP6 temperature programmer. Thermal denaturation profiles were measured by monitoring the absorbance at 260 nm from 18 to 90 °C with a heating rate of 1 °C min^−1 and recording every 0.1 °C. Measurement conditions: [PNA]=[DNA] or [RNA]=5 μM in PBS buffer [pH 7.0, NaCl (100 mM), NaH2PO4⋅H2O (10 mM), EDTA (0.1 mM)] with urea (5 M).

[2] = test system: DNA1 (full-match antiparallel DNA); assay: Melting temperature (Tm) of PNA:DNA duplexes, full-match DNA; type: binding; conditions: UV absorbance at 260 nm, strand concentration 5 μM
Procedure: as §1, with “Measurement conditions: [PNA]=[DNA] or [RNA]=5 μM in PBS buffer [pH 7.0, NaCl (100 mM), NaH2PO4⋅H2O (10 mM), EDTA (0.1 mM)] with urea (5 M).” left out

miR-210 = miR-210 content by RT-qPCR analysis; type: cell-based, human; conditions: K562 cells, 24 h
Procedure: K562 cells were treated with 15 nM mithramycin in the presence of a PNA (2 μM), and after 24 h RNA was isolated and miR-210 was assayed by RT-qPCR analysis. This type of test has been used to evaluate miR content in many studies because it allows the free-miR content to be evaluated. […] Figure 5 A and B reports the obtained data, showing that inhibition of miR bioavailability was induced both with the modified PNA and with the peptide-conjugated one, whereas in the case of PNA1 it was unchanged. […] This might be related to inhibition of pre-miR maturation or to unavailability of the miR to the qRT-PCR analysis due to strong complexation with the PNA. In either case the bioavailability of the miR for targeting other genes should be reduced.
Transfection procedures: Anti-miR-210 PNAs were directly added to the cellular medium to reach the indicated final concentrations. K562 cells were cultured in 24-well plates starting from the initial density of 30 000 cells per mL. MTH was administrated together with anti-miR PNAs.
RNA extraction: Cells were isolated by centrifugation at 1500 rpm for 10 min at 4 °C, washed in PBS and lysed in Tri-reagent (Sigma–Aldrich) according to the manufacturer's instructions. The isolated RNA was washed once with cold ethanol (75 %), dried and dissolved in ultrapure nuclease-free water.
Real-time quantitative PCR: For microRNA quantification with real-time RT-PCR reagents, the primers and probes were obtained from Applied Biosystems. Reverse transcriptase (RT) reactions were performed with a TaqMan MicroRNA Reverse Transcription Kit (Applied Biosystems) for hsa-miR-210, hsa-miR-10a, hsa-miR-93, hsa-miR-99b, hsa-miR-126, hsa-miR-149, hsa-miR-424, hsa-miR-483-5p, hsa-miR-625, hsa-let-7c and the iQTM5 real-time PCR System Instrument (Bio-Rad). Relative expression was calculated by the comparative cycle threshold method and U6 microRNA was used as reference gene to normalise all RNA samples, because it is constant in the assayed samples by miR-profiling and quantitative RT-PCR analysis as previously reported.[25]

Substance: H-C5LArgC5LArgG5LArgC5LArgT5LArgG5LArgT5LArgC5LArgACACGCACAG-NH2 [PNA4, 5L Arg (C5) backbone-modified 18-mer PNA, model 2, stretch of consecutive modified monomers]
- effect on γ-globin gene expression (γ-globin gene expression): inhibited γ-globin gene expression
- Tm, RNA2 in urea (5 M) [1]: 75 °C
- Tm, DNA1 in urea (5 M) ([2]; PBS buffer pH 7 (NaCl 100 mM, NaH2PO4 10 mM, EDTA 0.1 mM) with urea 5 M): 77 °C
- Tm, DNA1 in water ([2]; PBS buffer pH 7, no urea, 18 to 90 °C at 1 °C/min): >90 °C
- miR-210 inhibition upon treatment with mithramycin (miR-210; PNA 2 μM with MTH 15 nM, relative to pept-1 and MTH): best results
- inhibition of miR-210 bioavailability (miR-210 content) (miR-210; PNA 2 μM, Figure 5 A and B, relative to pept-1): Stronger inhibition
